According to patent US8778935B2 (Centro Nacional de Investigaciones Oncologicas (CNIO), priority 2009, dated 2014):
Where two headings read alike, the source gives them in different places.

What was measured:
PI3K (p110α/p85α) = target: T1, PI3K (p110α/p85α) (Homo sapiens, UniProt P42336); assay: PI3K Activity Assay (ADP Hunter Plus); assay type: biochemical
T1 construct: purchased Carna Biosciences 07CBS-0402A
Procedure: The kinase activity was measured by using the commercial ADP Hunter™ Plus assay available from DiscoveRx (#33-016), which is a homogeneous assay to measure the accumulation of ADP, a universal product of kinase activity. […] Reaction was carried out for 1 hour at 25° C. Reagent A and B were sequentially added to the wells and plates were incubated for 30 min at 37° C. […] Values were normalized against the control activity included for each enzyme (i.e., 100% PI3 kinase activity, without compound). These values were plot against the inhibitor concentration and were fit to a sigmoid dose-response curve by using the Graphad software.

phospho-Ser-473-Akt = assay: PI3K signalling: AKT phosphorylation inhibition, Western blot analysis; assay type: cell-based; settings: Homo sapiens, cell assay, read-out: IC50 of AKT Phosphorylation Inhibition (p-AKT cell)
Procedure: Cell culture: The cell lines were obtained from the American Type Culture Collection (ATCC). U2OS (human osteosarcoma) was cultured in Dulbecco's modified Eagle's medium (DMEM). PC3 (human prostate carcinoma), MCF7 (human breast cardinoma), HCT116 (human colon carcinoma), […], U251 (human glyoblastoma) were grown in RPMI. All media were supplemented with 10% fetal bovine serum (FBS) (Sigma) and antibiotics-antimycotics. Cell were maintained in a humidified incubator at 37° C. with 5% CO2 and passaged when confluent using trypsin/EDTA.
AKT phosphorylation Inhibition. Western Blot Analysis: Subconfluent cells were incubated under different conditions and washed twice with TBS prior to lysis. Lysis buffer was added containing 50 mM Tris HCl, 150 mM NaCl, 1% NP-40, 2 mM Na3VO4, 100 mM NaF, 20 mM Na4P2O7 and protease inhibitor cocktail (Roche Molecular Biochemicals). The proteins were resolved on 10% SDS-PAGE and transferred to nitrocellulose membrane (Schleicher & Schuell, Dassel, Germany). The membranes were incubated overnight at 4° C. with antibodies specific for Akt, phospho-Ser-473-Akt (Cell Signaling Technology) and α-tubulin (Sigma), they were washed and then incubated with IRDye800 conjugated anti-mouse and Alexa Fluor 680 goat anti-rabbit IgG secondary antibodies. The bands were visualized using an Odyssey infrared imaging system (Li-Cor Biosciences).

[1] = quantitative results, read-out: PI3Kα IC50
[2] = quantitative results of Table 4, read-out: PI3Kα IC50
[3] = PI3Kα activity, quantitative results, read-out: PI3Kα IC50

T1 sequence (P42336 whole entry): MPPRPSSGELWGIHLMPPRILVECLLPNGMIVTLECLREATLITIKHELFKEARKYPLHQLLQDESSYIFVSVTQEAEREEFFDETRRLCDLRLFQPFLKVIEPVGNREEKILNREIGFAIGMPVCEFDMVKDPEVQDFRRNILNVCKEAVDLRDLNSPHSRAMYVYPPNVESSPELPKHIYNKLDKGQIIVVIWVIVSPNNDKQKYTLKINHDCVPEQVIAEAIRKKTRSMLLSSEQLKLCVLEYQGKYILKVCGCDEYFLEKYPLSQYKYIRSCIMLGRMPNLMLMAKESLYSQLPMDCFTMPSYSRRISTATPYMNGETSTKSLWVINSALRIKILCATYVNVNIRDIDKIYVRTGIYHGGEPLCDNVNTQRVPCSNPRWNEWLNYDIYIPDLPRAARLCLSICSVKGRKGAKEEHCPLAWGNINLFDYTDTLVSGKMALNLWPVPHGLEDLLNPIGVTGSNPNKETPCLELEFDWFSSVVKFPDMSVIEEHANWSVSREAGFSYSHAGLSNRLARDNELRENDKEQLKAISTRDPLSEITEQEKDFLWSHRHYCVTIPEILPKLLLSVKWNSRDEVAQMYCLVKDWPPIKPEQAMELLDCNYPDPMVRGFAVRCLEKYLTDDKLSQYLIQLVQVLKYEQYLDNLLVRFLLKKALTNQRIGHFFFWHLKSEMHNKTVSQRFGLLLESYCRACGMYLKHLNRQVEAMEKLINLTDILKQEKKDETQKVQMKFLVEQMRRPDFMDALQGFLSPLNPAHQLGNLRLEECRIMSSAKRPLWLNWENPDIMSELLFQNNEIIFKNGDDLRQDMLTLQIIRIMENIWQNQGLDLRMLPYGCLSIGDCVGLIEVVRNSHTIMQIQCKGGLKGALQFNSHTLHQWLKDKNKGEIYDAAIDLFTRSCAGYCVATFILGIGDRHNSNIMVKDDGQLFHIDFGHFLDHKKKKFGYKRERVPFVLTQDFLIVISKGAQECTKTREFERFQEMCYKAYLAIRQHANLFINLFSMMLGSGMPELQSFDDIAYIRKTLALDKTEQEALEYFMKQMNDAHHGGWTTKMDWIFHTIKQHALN
T1 sequence (P27986 whole entry partner): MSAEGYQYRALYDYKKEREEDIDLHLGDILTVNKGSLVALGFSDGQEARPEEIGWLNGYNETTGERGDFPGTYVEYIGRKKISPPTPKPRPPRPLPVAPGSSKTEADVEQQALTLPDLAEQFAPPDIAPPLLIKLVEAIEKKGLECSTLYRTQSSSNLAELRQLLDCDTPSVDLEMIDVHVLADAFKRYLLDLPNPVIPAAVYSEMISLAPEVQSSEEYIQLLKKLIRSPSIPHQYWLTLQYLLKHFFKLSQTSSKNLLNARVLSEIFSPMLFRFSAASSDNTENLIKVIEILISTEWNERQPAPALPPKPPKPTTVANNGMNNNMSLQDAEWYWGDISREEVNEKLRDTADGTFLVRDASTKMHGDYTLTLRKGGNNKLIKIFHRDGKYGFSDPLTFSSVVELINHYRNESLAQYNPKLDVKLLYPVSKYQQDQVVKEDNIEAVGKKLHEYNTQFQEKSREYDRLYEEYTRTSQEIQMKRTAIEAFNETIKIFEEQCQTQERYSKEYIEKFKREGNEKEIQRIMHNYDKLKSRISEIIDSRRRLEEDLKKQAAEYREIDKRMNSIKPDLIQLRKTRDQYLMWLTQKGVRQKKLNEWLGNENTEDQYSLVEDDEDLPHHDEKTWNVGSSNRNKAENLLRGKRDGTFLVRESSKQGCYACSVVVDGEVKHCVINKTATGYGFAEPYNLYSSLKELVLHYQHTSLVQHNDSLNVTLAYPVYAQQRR

SMILES | IC50 (phospho-Ser-473-Akt) | IC50 (PI3K (p110α/p85α); [2]) | IC50 (PI3K (p110α/p85α); [3]) | IC50 (PI3K (p110α/p85α); [1]) | IC50 (PI3K (p110α/p85α); semi-quantitative results, read-out: PI3Kα IC50 (semi-quantitative class))
CS(=O)(=O)N1CCN(C(=O)c2cn3cc(-c4cccc5[nH]ncc45)nc(N4CCOCC4)c3n2)CC1 [2-16, (6-(1H-indazol-4-yl)-8-morpholinoimidazo[1,2-a]pyrazin-2-yl)(4-sulfonylmethyl-piperazin-1-yl)methanone] | 503 nM |  |  | 254 nM | 
CCOC(=O)c1cn2cc(-c3cccc(O)c3)nc(N3CCOCC3)c2n1 [2-01, ethyl 6-(3-hydroxyphenyl)-8-morpholinoimidazo[1,2-a]pyrazine-2-carboxylate] | 132 nM |  |  | 158 nM | 100 to 1000 nM
COCCNC(=O)c1cn2cc(-c3cccc4[nH]ncc34)nc(N3CCOCC3)c2n1 [2-186] | 281 nM |  | 66 nM |  | 
Cc1ncc(-c2cn3cc(CN4CCN(S(C)(=O)=O)CC4)nc3c(N3CCOCC3)n2)cn1 [2-196] | 134 nM |  | 21 nM |  | 
CC(C)CS(=O)(=O)N1CCN(Cc2cn3cc(-c4cnc(N)nc4)nc(N4CCOCC4)c3n2)CC1 [2-221] | 135 nM |  | 11 nM |  | 

Further lines, with some results ahead:

IC50 (phospho-Ser-473-Akt) | IC50 (PI3K (p110α/p85α); [2]) | IC50 (PI3K (p110α/p85α); [3]) | SMILES | IC50 (PI3K (p110α/p85α); [1]) | IC50 (PI3K (p110α/p85α); semi-quantitative results, read-out: PI3Kα IC50 (semi-quantitative class))
34 nM | 11 nM |  | Nc1ncc(-c2cn3cc(C(=O)NCCN4CCOCC4)nc3c(N3CCOCC3)n2)cn1 [2-164] |  | 
1050 nM | 166 nM |  | COCCNC(=O)c1cn2cc(-c3cccnc3)nc(N3CCOCC3)c2n1 [2-154] |  | 
37 nM |  |  | CCNC(=O)c1cn2cc(-c3cccc4[nH]ncc34)nc(N3CCOCC3)c2n1 [2-74, N-ethyl-6-(1H-indazol-4-yl)-8-morpholinoimidazo[1,2-a]pyrazine-2-carboxamide] | 92 nM | 
469 nM |  | 83 nM | Nc1ncc(-c2cn3cc(CN4CCOCC4)nc3c(N3CCOCC3)n2)cn1 [2-175] |  | 
